The values below come from ChEMBL document CHEMBL2016551, “Synthesis and SAR studies of novel heteroaryl fused tetracyclic indole-diamide compounds: potent allosteric inhibitors of the hepatitis C virus NS5B polymerase” (Bioorg Med Chem Lett, 2012).

Data set [1] concerns the target RNA-directed RNA polymerase (Hepacivirus hominis, UniProt O39930, P495L). Description: Inhibition of Hepatitis C virus NS5B RNA-dependent RNA polymerase P495L mutant.
Data set [2] in a line: Inhibition of Hepatitis C virus NS5B RNA-dependent RNA polymerase. Also noted: species or system Hepacivirus hominis.
Data set [3] has as its system Hepatitis C virus. Description: Antiviral activity against Hepatitis C virus genotype 1b infected in human HuH7 cells by luciferase reporter gene analysis. The note with it: Huh-7. In kind it is functional, organism-based, Hepacivirus hominis. Background: Reporter assays use an easily measured gene product as a stand-in for the process of interest.
The test system of data set [4] is Hepatitis C virus. The experiment in a line: Antiviral activity against Hepatitis C virus genotype 1a infected in human HuH7 cells by luciferase reporter gene analysis. Format: functional, organism-based, Hepacivirus hominis. The note with it: subtype 1a, Huh-7.
Data set [5] can be described thus: Cytotoxicity against human HuH7 cells. In kind it is cell-based. To be noted: Huh-7 cells.
The nature of data set [6]: AUC in rat. Format: ADME, organism-based. To be noted: plasma.
Data set [7] in a line: Half life in rat at 2 mg/kg, iv. In kind it is ADME, organism-based. Also noted: dose 2 mg/kg, route intravenous. To be noted: in vivo.
A short description of data set [8]: Clearance in rat at 2 mg/kg, iv. Format: ADME, organism-based. Set-up: dose 2 mg/kg, route intravenous. To be noted: in vivo.
The nature of data set [9]: Oral bioavailability in rat. In kind it is ADME, organism-based. The note with it: in vivo.

Chain of RNA-directed RNA polymerase (O39930 entry or part of it P495L): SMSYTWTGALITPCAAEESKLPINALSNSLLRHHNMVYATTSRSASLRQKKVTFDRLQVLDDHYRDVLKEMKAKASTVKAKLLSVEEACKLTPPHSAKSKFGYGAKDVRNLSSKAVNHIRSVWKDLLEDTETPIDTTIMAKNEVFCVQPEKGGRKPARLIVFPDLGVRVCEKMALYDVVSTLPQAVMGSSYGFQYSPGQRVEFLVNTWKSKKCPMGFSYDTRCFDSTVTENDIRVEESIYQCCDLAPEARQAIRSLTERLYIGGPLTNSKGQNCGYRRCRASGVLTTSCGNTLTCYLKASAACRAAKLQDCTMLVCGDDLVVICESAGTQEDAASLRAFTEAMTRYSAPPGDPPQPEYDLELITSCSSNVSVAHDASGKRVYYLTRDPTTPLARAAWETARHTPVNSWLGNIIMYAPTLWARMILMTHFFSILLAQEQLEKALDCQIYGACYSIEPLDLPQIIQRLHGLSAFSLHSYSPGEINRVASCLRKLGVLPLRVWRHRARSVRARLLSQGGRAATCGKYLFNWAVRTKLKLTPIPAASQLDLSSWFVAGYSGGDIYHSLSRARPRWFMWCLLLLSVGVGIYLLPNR

With `O=C(O)/C=C/c1ccc(NC(=O)C2(NC(=O)c3ccc4c(C5CCCCC5)c5n(c4c3)CCCc3nccnc3-5)CCCC2)cc1`, the IC50 (commonly the concentration that gives 50% inhibition) in data set [1] was 2280 nM; in [2] it was 24 nM. Moreover, the results for the EC50 in the data set on Hepatitis C virus [3] and with Hepatitis C virus [4] were 24 nM and 89 nM, respectively.

In the case of `O=C(O)/C=C/c1ccc(NC(=O)C2(NC(=O)c3ccc4c(C5CCCCC5)c5n(c4c3)CCCc3occc3-5)CCCC2)cc1`, the 50% inhibitory concentration (IC50) was determined as 3720 nM in [1] and 34 nM in [2]. Besides, the EC50 (commonly the midpoint of the concentration-response curve) in the data set on Hepatitis C virus [3] was below 69 nM.

As for `O=C(O)/C=C/c1ccc(NC(=O)C2(NC(=O)c3ccc4c(C5CCCCC5)c5n(c4c3)CCOc3ncccc3-5)CCCC2)cc1`, the results for the IC50 in data set [1] and in data set [2] were 2800 nM and 14 nM, respectively. The EC50 is 21 nM with Hepatitis C virus [3] and 28 nM with Hepatitis C virus [4].

In the case of `O=C(O)/C=C/c1ccc(NC(=O)C2(NC(=O)c3ccc4c(C5CCCCC5)c5n(c4c3)CCCc3ocnc3-5)CCCC2)cc1`, the figures for the IC50 in data set [1] and in data set [2] were 5850 nM and 44 nM, respectively. For the same molecule, the figures for the EC50 with Hepatitis C virus [3] and in the data set on Hepatitis C virus [4] were 78 nM and 380 nM, respectively.

As for `O=C(O)/C=C/c1ccc(NC(=O)C2(NC(=O)c3ccc4c(C5CCCCC5)c5n(c4c3)CCCc3ncccc3-5)CCCC2)cc1`, the IC50 in data set [1] turned out to be 1730 nM; in [2], 30 nM. The midpoint of cytotoxicity in data set [5], the CC50, lay at 63000 nM. Further, in data set [6], the AUC (usually concentration integrated over time) amounted to 1.7 µM·h. Also, the half-life (in general, how long it takes for the measured level to halve) in [7] is 1 h. The EC50 in the data set on Hepatitis C virus [3] is 9 nM; in the data set on Hepatitis C virus [4] it was 35 nM. Also, in data set [8], the clearance (in general, a measure of how efficiently the substance is removed, as volume per time) was determined as 7.2 mL/min/kg. For the same molecule, the bioavailability (commonly the share of a dose that reaches the circulation, judged against a reference dose that is usually intravenous) in data set [9] is 4%.

In data set [2], `O=C(O)/C=C/c1ccc(NC(=O)C2(NC(=O)c3ccc4c(C5CCCCC5)c5n(c4c3)CCCc3nc[nH]c3-5)CCCC2)cc1` had an IC50 of 228 nM. The EC50 in the data set on Hepatitis C virus [3] is 738 nM; in the data set on Hepatitis C virus [4] it was 2510 nM.

As to `Nc1nc2c(s1)CCCn1c-2c(C2CCCCC2)c2ccc(C(=O)NC3(C(=O)Nc4ccc(/C=C/C(=O)O)cc4)CCCC3)cc21`, the values for the IC50 in data set [1] and in [2] were 4840 nM and 250 nM, respectively. The EC50 in the data set on Hepatitis C virus [3] turned out to be 1810 nM; in the data set on Hepatitis C virus [4] it was 3780 nM.

Consider `O=C(O)/C=C/c1ccc(NC(=O)C2(NC(=O)c3ccc4c(C5CCCCC5)c5n(c4c3)CC(=O)Nc3cccnc3-5)CCCC2)cc1`, for which the results for the IC50 in data set [1] and in data set [2] were 3100 nM and 24 nM, respectively. Also, the CC50 (commonly the concentration at which the toxic effect on the cells reaches its halfway point) in data set [5] amounted to 45000 nM. Further, the 50% effective concentration (EC50) was 12 nM with Hepatitis C virus [3] and 39 nM with Hepatitis C virus [4]. This molecule showed a clearance in [8] of 8.7 mL/min/kg. In data set [9], this molecule showed a bioavailability below 1%.

Consider `O=C(O)/C=C/c1ccc(NC(=O)C2(NC(=O)c3ccc4c(C5CCCCC5)c5n(c4c3)CCOc3cccnc3-5)CCCC2)cc1`, for which the figures for the IC50 in data set [1] and in data set [2] were above 600 nM and 15 nM, respectively. In addition, the EC50 was 22 nM in the data set on Hepatitis C virus [3] and 157 nM in the data set on Hepatitis C virus [4].

For `O=C(O)/C=C/c1ccc(NC(=O)C2(NC(=O)c3ccc4c(C5CCCCC5)c5n(c4c3)CCCc3ccccc3-5)CCCC2)cc1`, the IC50 was found to be 3390 nM in data set [1] and 34 nM in data set [2]. The CC50 in data set [5] came out at 30000 nM. Moreover, the EC50 with Hepatitis C virus [3] amounted to 14 nM; in the data set with Hepatitis C virus [4], 71 nM.

As for `Cc1nc2c(s1)CCCn1c-2c(C2CCCCC2)c2ccc(C(=O)NC3(C(=O)Nc4ccc(/C=C/C(=O)O)cc4)CCCC3)cc21`, the IC50 in [1] stood at 5100 nM; in [2] it was 108 nM. The EC50 in the data set on Hepatitis C virus [3] stood at 683 nM; in the data set with Hepatitis C virus [4] it was 4190 nM.
